The numbers were not newly measured in patent US20090215818A1, “THIOZOLIDINEDIONE DERIVATIVES AS PI3 KINASE INHIBITORS” (SmithKline Beecham Corporation, priority 2006, published 2009), which cites them from elsewhere.

The subject of data set [1] is Class I PI3-kinases. The following applies: each of the Class I PI3-kinases.
Data set [2] has as its target CK2 protein kinase (Homo sapiens, UniProt P68400).

Read-outs that look alike come from different tables or passages of the source.

Sequence of CK2 protein kinase (P68400 whole entry): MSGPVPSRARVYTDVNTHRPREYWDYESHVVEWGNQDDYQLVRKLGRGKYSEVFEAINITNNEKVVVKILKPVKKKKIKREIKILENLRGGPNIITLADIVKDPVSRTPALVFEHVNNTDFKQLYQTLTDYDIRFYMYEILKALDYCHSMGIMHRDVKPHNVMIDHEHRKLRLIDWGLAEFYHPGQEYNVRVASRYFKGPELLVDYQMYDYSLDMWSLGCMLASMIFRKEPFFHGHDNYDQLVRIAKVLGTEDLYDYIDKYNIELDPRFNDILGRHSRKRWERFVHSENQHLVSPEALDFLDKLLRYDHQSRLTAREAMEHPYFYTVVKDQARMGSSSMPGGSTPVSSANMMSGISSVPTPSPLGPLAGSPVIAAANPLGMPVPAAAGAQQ

The IC50 is the concentration that inhibits the measured activity by half. Turning to wortmannin, the half-inhibitory concentration (IC50) in data set [1] (read-out: IC50 against each of the various Class I PI3-kinases) is 0.001 to 0.01 µM. Take `O=c1cc(N2CCOCC2)oc2c(-c3ccccc3)cccc12` [LY294002]: the IC50 is 15 to 20 µM in data set [1] (Fruman et al. 1998, read-out: IC50 against each of these PI3-kinases) and 5 to 10 µM in data set [2].
